Test results published in patent US9937194B1, “Compounds and methods for treating inflammatory diseases” (priority 2009, dated 2018).
≈ marks a conversion by molar mass, not a printed value.

Key:
[1] = tested on: IL-8; experiment: LPS-induced IL-8 release in PMA-differentiated U937 cells (ELISA); type: cell-based, human; conditions: for IL-8 inhibition (%): test concentration not given
Experimental: (§1) Cytokine ELISA. LPS-induced IL-8, TNFα concentrations and TNFα-induced IL-8 concentrations are determined by sandwich ELISA according to the manufacturer's instructions (R&D Systems Europe). IC50 values for dexamethasone on IL-8 production are calculated using the computer program Prism 4.0 (GraphPad Software Inc., San Diego, Calif.) as a marker for steroid sensitivity.
(§2) Effects of compounds on LPS-induced IL-8 and TNFα release in PMA-differentiated U937 cells. PMA-differentiated macrophage-like cells are pretreated with compounds described herein for 1 hr, followed by LPS (100 ng/ml) stimulation for 4 hrs. LPS-induced IL-8 and TNFα release is evaluated by ELISA. Values represent means of three experiments±SEM.

[2] = tested on: TNFα; experiment: LPS-induced TNFα release in PMA-differentiated U937 cells (ELISA); type: cell-based, human; conditions: for TNFα inhibition (%): test concentration not given
Experimental: as §1, §2

[3] = type: cell-based; conditions: test concentration not given
Experimental: The human monocytic cell line U937 and the human type II alveolar epithelial carcinoma cell line A549 were obtained from the American Type Culture Collection (ATCC, Rockville, Md.). PBMCs from COPD patients were obtained in Brompton hospital and separated by AccuSPIN (Sigma-Aldrich, Poole, UK). Cells were cultured in complete growth medium (Sigma-Aldrich) (RPMI 1640 for U937, PBMCs, and Dulbecco's modified essential medium (DMEM) for A549) supplemented with 10% fetal bovine serum (FBS) and 1% L-glutamine at 37° C. in a humidified atmosphere with 5% CO2. U937 were differentiated into an adherent macrophage-like morphology by exposure to PMA (50 or 100 ng/ml) for 48 hrs in complete growth medium. Cell viability was assessed microscopically by trypan blue staining. Cell toxicity was determined by MTT assay as needed. This study was approved by the ethics committee of the Royal Brompton Hospitals, and all subjects gave written informed consent.

[4] = tested on: MMP9; experiment: PMA-induced MMP9 expression in U937 cells (gelatin zymography); type: cell-based, human; conditions: test concentration not given; bracketed second value not explained
Experimental: Zymography. MMP9 enzyme activity is measured by gelatin zymography. 5 μl of supernatants were diluted with 5 μl Laemli sample buffer (Bio-Rad) and are loaded on a Novex® 10% Zymogram (Gelatin) gel (Invitrogen). After electrophoresis (90 min, 125 V, 35 mA, 5 W) gels are incubated with 1× Novex® zymogram renaturing buffer (Invitrogen) for 30 min at room temperature with gentle agitation. Gels are then rinsed in 1× Novex® zymogram developing buffer (Invitrogen) for 30 min at room temperature with gentle agitation prior to overnight incubation in the developing buffer at 37° C. After incubation the gels are stained using the colloidal blue staining kit (Invitrogen) with buffer containing 20% methanol and 70% distilled water to visualize the zymogen bands. Relevant band intensities are quantified by densitometric analysis using the UVP GelDoc-It system.
Effects of compounds on PMA-induced MMP9 expression in U937 cells. U937 cells are pretreated with compounds described herein for 1 hr, followed by PMA (50 ng/ml) treatment for 48 hrs. After 48 hrs supernatants are collected for zymography. MMP9 enzyme activity is measured by gelatin zymography. Data are expressed as fold changes against positive control treated with PMA only. Values represent means of three experiments±SEM.

[5] = tested on: H. influenzae ATCC 49247; experiment: MIC; type: cell-based
[6] = tested on: HDAC activity; experiment: H2O2-induced reduction of HDAC activity in PMA-differentiated U937 cells; type: cell-based, human; conditions: for restoration of H2O2-reduced HDAC activity (%): test concentration not given, bracketed second value not explained
Experimental: In cell HDAC assay. Cells are incubated with Fluor de Lys™ substrate for 1 hr before lyses. Total HDAC activity from whole cell extracts is measured using the HDAC Fluorimetric Assay/Drug Discovery Kit (BIOMOL® International, Inc., Plymouth Meeting, Pa.).
HDAC expression: In cell HDAC activity assay: U937 is differentiated to macrophage type cells by PMA for 3 days. HDAC fluorescent substrate (Biomol) is added before exposure of oxidative stress (H2O2, 200 μM) or Tobacco smoke conditioned medium for 4 hrs. HDAC activity is measured (Biomol kit). Compounds at different concentrations are treated 20 min before oxidative stress treatment.
PMA-differentiated macrophage-like cells are pretreated with compounds described herein for 20 min. After H2O2 (200 μM) stimulation for 4 hrs, HDAC activity is assayed. Data are expressed as fold changes against positive control treated with H2O2 only. Values represent means of four experiments±SEM.

[7] = tested on: E. faecium ATCC 19434; experiment: MIC; type: cell-based
[8] = tested on: E. coli ATCC 25922; experiment: MIC; type: cell-based; conditions: in µg/mL
[9] = tested on: S. pneumoniae ATCC 49619; experiment: MIC; type: cell-based
[10] = tested on: S. aureus ATCC 29213 (MSSA) MLS-S; experiment: MIC; type: cell-based
[11] = tested on: S. aureus MRSA 33591; experiment: MIC; type: cell-based
[12] = tested on: S. pyogenes ATCC 19615; experiment: MIC; type: cell-based; conditions: in µg/mL
[13] = tested on: K. pneumonia 13883; experiment: MIC; type: cell-based; conditions: in µg/mL
[14] = tested on: N. gonorrhoeae ATCC 49226; experiment: MIC; type: cell-based; design: unit not given beside the values
[15] = tested on: S. typhimurium ATCC 14028; experiment: MIC; type: cell-based; conditions: in µg/mL
[16] = tested on: P. aeruginosa ATCC 27853; experiment: MIC; type: cell-based
[17] = tested on: Akt; experiment: H2O2-induced phosphorylation of Akt in PMA-differentiated U937 cells (western blot); type: cell-based, human; conditions: PMA-differentiated U937; H2O2 1 mM 30 min
Experimental: Cell Lysis and Western Blotting. Whole cell protein extracts are prepared using modified RIPA buffer (50 mM Tris HCL pH 7.4, 0.5% NP-40, 0.25% Na-deoxycholate, 150 mM NaCl with freshly added complete protease (Roche). Phosphatase inhibitor (Active Motif) is also added when required. Protein concentration is determined using the Bio-Rad Protein Assay (Bio-Rad). Proteins are separated by SDS-PAGE under denaturing conditions, and electrotransferred to a nitrocellulose membrane (Amersham Biosciences, Amersham, U.K.) (Western blotting). The membranes are blocked in TBS containing 0.05% Tween 20 and 5% non-fat dried milk, and then incubated with anti-pAkt or Akt antibody followed by an horse radish peroxidase-conjugated secondary antibody (Dako UK Ltd., Ely, UK). Bound antibodies are visualized by ECL Plus (GE Healthcare UK Ltd., Little Chalfont, UK). The band density is calculated by densitometry (UVP Bioimaging Systems, Cambridge, UK) using Labworks software (Ultra-Violet Products, Cambridge, UK).
Effects of compounds on H2O2-induced phosphorylation of Akt in PMA-differentiated U937 cells. PMA-differentiated macrophage-like cells are pretreated with compounds described herein for 20 min. After H2O2 (1 mM) stimulation for 30 min, cells are lysed. Phosphorylation levels of Akt are measured by western blot. Data are calculated relative to total protein, and expressed as fold changes against positive control treated with H2O2 only. Values represent means of three or four experiments±SEM.

| Compound | IL-8 inhibition (%) [1] [%] | TNFα inhibition (%) [2] [%] | Cell Toxicity (% cell death) [3] [%] | MMP9 inhibition (%) [4] | MIC H. influenzae ATCC 49247 [5] [µg/mL] | restoration of H2O2-reduced HDAC activity (%) [6] | MIC E. faecium ATCC 19434 [7] [µg/mL] | MIC E. coli ATCC 25922 [8] | MIC S. pneumoniae ATCC 49619 [9] [µg/mL] | MIC S. aureus ATCC 29213 (MSSA) MLS-S [10] [µg/mL] | MIC S. aureus MRSA 33591 [11] [µg/mL] | MIC S. pyogenes ATCC 19615 [12] | MIC K. pneumonia 13883 [13] | MIC N. gonorrhoeae ATCC 49226 [14] | MIC S. typhimurium ATCC 14028 [15] | MIC P. aeruginosa ATCC 27853 [16] [µg/mL] | further results |
| --- | --- | --- | --- | --- | --- | --- | --- | --- | --- | --- | --- | --- | --- | --- | --- | --- | --- |
| CCC1OC(=O)C(C)C(OC2CC(C)(OC)C(OC(C)=O)C(C)O2)C(C)C(OC2OC(C)CC(N(C)C)C2O)C(C)(OC)CC(C)C(=O)C(C)C2N(CCCCn3cc(CN(C)C)nn3)C(=O)OC12C (centres unmarked) [Example 24] | 60 | 6 | −3 | 11% | 64 (≈ 64.3 µM) | 85% | – | – | – | – | – | – | – | – | – | – | – |
| CCC1OC(=O)C(C)C(OC2CC(C)(OC)C(O)C(C)O2)C(C)C(OC2OC(C)CC(N(C)C)C2O)C(C)(O)CC(C)CN(C)C(C)C2OC(=O)OC12C (centres unmarked) [Example 42] | −27 | 8 | −8 | −2% | 4 (≈ 5.16 µM) | 104 (79) % | 8 (≈ 10.3 µM) | 8-32 | ≤ 0.125 | 1 (≈ 1.29 µM) | > 64 | ≤0.125 | 8-32 | ≤0.125 | 8-16 | > 64 | – |
| CCC1OC(=O)C(C)C(OC2CC(C)(OC)C(OC(C)=O)C(C)O2)C(C)C(OC2OC(C)CC(N(C)C)C2O)C(C)(OC)CC(C)C(=O)C(C)C2N(CCCCn3cc(CO)nn3)C(=O)OC12C (centres unmarked) [Example 25] | 26 | 15 | −8 | 10% | 4 (≈ 4.13 µM) | 72 (63) % | – | – | – | – | – | – | – | – | – | – | – |
| CC[C@H]1OC(=O)[C@H](C)C(=O)[C@H](C)[C@@H](O[C@@H]2O[C@H](C)C[C@H](N(C)C)[C@H]2O)[C@@](C)(OC)C[C@@H](C)CN(C(=O)CCCn2cc(-c3ccc(Br)cc3)nn2)[C@H](C)[C@@H](O)[C@]1(C)O [Example 41] | 54 | 45 | 8 | 39 (41) % | > 64 | 14% | 64 (≈ 72.7 µM) | >64 | 32 (≈ 36.3 µM) | 64 (≈ 72.7 µM) | > 64 | 64 | >64 | 64 | >64 | > 64 | – |
| CC[C@H]1OC(=O)[C@H](C)C(=O)[C@H](C)[C@@H](O[C@@H]2O[C@H](C)C[C@H](N(C)C)[C@H]2O)[C@](C)(OC)C[C@@H](C)C(=O)[C@H](C)[C@H]2N(CCCCn3cnc(-c4cccnc4)c3)C(=O)O[C@]12C [TEL, telithromycin, reference compound] | – | – | – | – | – | – | – | – | – | – | – | – | – | – | – | – | inhibition of LPS-induced IL-8 release compared with Example 33 ([1]; LPS 100 ng/ml 4 hrs): did not show any inhibition at any concentration tested; inhibition of Akt phosphorylation compared with Example 33 [17]: only at much higher concentrations than Example 33; IC50 ([2]; Homo sapiens, U-937, LPS-induced TNFα release, PMA-differentiated U937, NA = inactive): 231 ± 37 µM; inhibition of LPS-induced TNFα release compared with Example 33 ([2]; LPS 100 ng/ml 4 hrs): at higher concentrations than Example 33; restoration of HDAC activity compared with Example 33 ([6]; PMA-differentiated U937, H2O2 200 μM 4 hrs): only at much higher doses than Example 33; HDAC activity reached compared with untreated controls ([6]; PMA-differentiated U937, H2O2 200 μM, comparators at highest doses tested): only restore HDAC activity to levels comparable to untreated controls |
